Data published in patent US20260102420A1, “CANCER IMMUNOTHERAPY” (Hoffmann-La Roche Inc., priority 2022, published 2026).

How the values were obtained:
[1] = system: CD3+ T cells; assay: T cell activation (CD25/CD69) by flow cytometry after co-culture with pre-treated MKN45; type: cell-based, human; conditions: CD3+ T cells from the same co-cultures; FIGS. 9D and 9E
Method: (§1) FIGS. 9A, 9B, 9C, 9D, and 9E. UAP1 inhibition with Ac4Glc2Bz in tumor cells improves T cell-mediated killing and T cell activation. FIG. 9A: Detection of UDP-HexNAc in MKN45 cell lysates after 2h treatment with Ac4Glc2Bz. FIGS. 9B and 9C: MKN45 were pre-treated with the indicated concentrations of Ac4Glc2Bz for 2 h. Afterwards, the compound was removed from the culture and T cells were added alongside TCBs at the indicated concentrations. Graphs show the % of remaining tumor cells after 105h from co-culture. DP47 TCB was used as negative control. FIGS. 9D and 9E: Flow cytometry of CD3+ T cells from the experiments in FIGS. 9B and 9C. T cell activation was assessed as previously described.
T cell-mediated killing assay was performed as described above. At the end of the experiment, T cells were collected from the co-culture plates and subjected to immunofluorescence for the following markers: CD3, CD8, CD25, CD69 and Near-IR live/dead staining (Thermo Scientific). Cells were gated on live CD3^+ cells and % Activated cells was calculated as such: […]. For the proliferation assay, T cells were pre-stained with CFSE (Biolegend) according to manufacturer's instructions, and then used in a T cell-mediated killing assay with either MKN45-NLR wt or MKN45-NLR KO cells for 4 days. Afterwards, cells were harvested and CFSE was assessed by FACS. […]

[2] = system: MKN45; assay: T cell-mediated killing assay, MKN45 pre-treated with compound, co-culture with T cells and TCBs; type: cell-based, human; conditions: MKN45 pre-treated 2 h, compound removed, T cells and TCBs added; FIGS. 9B and 9C
Method: as §1
25000 MKN45-nuclight red (NLR), 20000 A549-hCEA and 10000 B16F10-NLR tumor cells (wt or UAP1 ko) were seeded in one well of a 96 well-plate. Afterwards TCBs or siinfekl were given at the indicated concentrations. Pan T cells or PBMCs, mouse splenocytes (from C57/BL6 or OT-I mice) were immediately added at the indicated E:T ratios. Co-cultures were incubated at 37° C. and 5% C02 in the Incucye S3 instrument (Sartorius) for the indicated time. […] For MKN45-NLR and B16F10-NLR, T cell-mediated killing was calculated based on the red fluorescent signal coming from the tumor cells. All values were first transformed to fold-change to time 0, and % specific lysis was calculated as follows: […]

[3] = target: T1, UAP1 (Homo sapiens, UniProt Q16222); assay: Detection of UDP-HexNAc by LC-MS in MKN45 cell lysates after 2h treatment; type: cell-based; conditions: MKN45 pre-treated for 2h, FIG. 9A
T1 construct: endogenous in cells; host or cells: MKN45 (human gastric adenocarcinoma cell line), wild type
T1 sequence (Q16222 whole entry): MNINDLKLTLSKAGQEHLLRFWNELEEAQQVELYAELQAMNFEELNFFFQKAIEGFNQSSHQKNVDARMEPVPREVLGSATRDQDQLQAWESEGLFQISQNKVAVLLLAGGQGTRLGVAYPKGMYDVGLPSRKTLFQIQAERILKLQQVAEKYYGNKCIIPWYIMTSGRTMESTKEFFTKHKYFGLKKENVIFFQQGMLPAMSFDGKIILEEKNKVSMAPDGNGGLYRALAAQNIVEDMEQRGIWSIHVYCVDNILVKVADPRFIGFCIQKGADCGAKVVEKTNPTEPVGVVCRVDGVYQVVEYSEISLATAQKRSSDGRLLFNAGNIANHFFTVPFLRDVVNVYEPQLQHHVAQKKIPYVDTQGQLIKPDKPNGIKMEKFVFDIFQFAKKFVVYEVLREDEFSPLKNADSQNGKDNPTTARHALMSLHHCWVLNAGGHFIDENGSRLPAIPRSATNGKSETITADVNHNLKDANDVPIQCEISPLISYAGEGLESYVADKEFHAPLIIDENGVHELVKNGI
Method: as §1
For the preparation of calibration samples Uridine-5′-diphospho-N-acetylglucosamine sodium salt was dissolved in an 80/20 mixture of water/methanol (v/v) to a concentration of 1.00 mg/ml. A stock solution for the preparation of QC samples was prepared separately using the same procedure with separate weighing of the reference substance. Further dilutions were done in water. For calibration and quality control samples, eight and three different concentrations of Uridine-5′-diphospho-N-acetylglucosamine (UDP HExNAc) spiked into phosphate-buffered saline (PBS) were used, respectively. Two different calibration ranges were applied. […]

inhibition of UAP1 (UDP-HexNAc detection) [3]: dose-dependent inhibition of UAP1
SMILES: CC(=O)OCC1OC(OC(C)=O)C(NC(=O)c2ccccc2)C(OC(C)=O)[C@@H]1OC(C)=O (stereo partly drawn) [Ac4Glc2Bz]
T cell activation [1]: increased | T cell mediated killing [2]: increased T cell mediated killing
